Experimental data published in patent US20250270190A1, “KIT INHIBITORS” (BLUEPRINT MEDICINES CORPORATION, priority 2022, published 2025).
Where a name gives a salt, the structure may show the parent alone.

Molecular target: T1, c-kit autophosphorylation (Phospho c-Kit Tyr721) in HMC 1.1 (exon 11/13) cells, V654A (Homo sapiens, UniProt P10721, V560G/V654A)
T1 construct: endogenous in cells; host or cells: HMC 1.1 (exon 11/13) cells
Assay: pKIT Meso Scale Discovery (MSD) assay, inhibition of autophosphorylation of KIT, HMC1.1_V654A
Assay type: cell-based
Conditions: Table 1, cell line not named for Table 1, b1056 names pKIT HMC1.1_V654A, read-out: Code (IC50 for inhibition of autophosphorylation of KIT, pKIT MSD assay)
In short: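 HMC1.1 cells were serum-starved for 4 h in serum-free, iron-free, phenol red-free IMDM, then treated with compound in dose-response for 90 min at 37 °C. Staurosporine and DMSO served as controls. Lysates were analysed by MSD electrochemiluminescence immunoassay for phospho-c-Kit Tyr721, and % inhibition of autophosphorylation was derived.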

T1 sequence (P10721 26-976 V560G/V654A): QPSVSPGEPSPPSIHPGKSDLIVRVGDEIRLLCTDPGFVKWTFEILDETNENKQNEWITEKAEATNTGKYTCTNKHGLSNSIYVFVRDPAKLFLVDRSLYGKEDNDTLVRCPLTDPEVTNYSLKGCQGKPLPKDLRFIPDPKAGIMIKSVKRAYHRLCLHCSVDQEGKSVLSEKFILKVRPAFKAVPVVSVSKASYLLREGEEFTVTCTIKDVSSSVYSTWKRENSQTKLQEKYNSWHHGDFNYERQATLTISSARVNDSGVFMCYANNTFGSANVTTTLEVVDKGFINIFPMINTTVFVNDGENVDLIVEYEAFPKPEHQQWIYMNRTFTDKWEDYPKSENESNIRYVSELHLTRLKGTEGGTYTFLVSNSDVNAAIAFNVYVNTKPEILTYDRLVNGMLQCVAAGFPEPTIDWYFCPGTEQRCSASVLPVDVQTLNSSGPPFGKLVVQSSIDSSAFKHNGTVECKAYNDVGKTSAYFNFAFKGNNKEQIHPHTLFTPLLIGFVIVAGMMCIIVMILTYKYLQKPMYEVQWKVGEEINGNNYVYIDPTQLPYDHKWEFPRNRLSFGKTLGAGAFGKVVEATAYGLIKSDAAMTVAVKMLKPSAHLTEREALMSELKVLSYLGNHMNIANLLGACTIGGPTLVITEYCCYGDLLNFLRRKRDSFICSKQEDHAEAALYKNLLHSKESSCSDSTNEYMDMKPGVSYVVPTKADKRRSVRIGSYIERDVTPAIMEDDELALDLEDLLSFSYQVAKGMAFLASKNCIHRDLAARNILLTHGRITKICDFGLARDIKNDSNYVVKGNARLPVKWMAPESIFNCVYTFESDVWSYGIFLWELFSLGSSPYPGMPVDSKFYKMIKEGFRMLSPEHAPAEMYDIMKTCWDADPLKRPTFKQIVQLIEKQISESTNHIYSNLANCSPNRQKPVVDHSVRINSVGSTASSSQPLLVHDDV

Row | SMILES | IC50 [nM]
1 | CNC(=O)c1cnc(Nc2cc(N)nc(C(F)F)n2)cc1NCC(C)C [Compound 43, 6-((6-amino-2-(difluoromethyl)pyrimidin-4-yl)amino)-4-(isobutylamino)-N-methylnicotinamide] | < 10
2 | CNC(=O)c1cnc(Nc2cc(N)nc(CF)n2)cc1N[C@@H](C)C(F)F [Compound 46, (S)-6-((6-amino-2-(fluoromethyl)pyrimidin-4-yl)amino)-4-((1,1-difluoropropan-2-yl)amino)-N-methylnicotinamide] | < 10
3 | COc1cc(Nc2cc(N)nc(C(F)F)n2)ncc1-c1cnn(C2CC2)c1 [Compound 52, N4-(5-(1-cyclopropyl-1H-pyrazol-4-yl)-4-methoxypyridin-2-yl)-2-(difluoromethyl)pyrimidine-4,6-diamine] | < 10
4 | Cn1cc(-c2cnc(Nc3cc(N)nc(C(F)F)n3)cc2OC2CC2)cn1 [Compound 53, N4-(4-cyclopropoxy-5-(1-methyl-1H-pyrazol-4-yl)pyridin-2-yl)-2-(difluoromethyl)pyrimidine-4,6-diamine] | < 10
5 | N#CCNC(=O)c1cnc(Nc2cc(N)nc(C(F)F)n2)cc1NC1CC1 [Compound 54, 6-((6-amino-2-(difluoromethyl)pyrimidin-4-yl)amino)-N-(cyanomethyl)-4-(cyclopropylamino)nicotinamide] | 10 to 40
6 | COc1cc(Nc2cc(N)nc(C(F)F)n2)ncc1-c1cnn(CCO)c1 [Compound 59, 2-(4-(6-((6-amino-2-(difluoromethyl)pyrimidin-4-yl)amino)-4-methoxypyridin-3-yl)-1H-pyrazol-1-yl)ethan-1-ol trifluoroacetate] | 10 to 40
7 | CNC(=O)c1cnc(Nc2cc(N)nc(C(F)F)n2)cc1NCC1CCC1 [Compound 61, 6-((6-amino-2-(difluoromethyl)pyrimidin-4-yl)amino)-4-((cyclobutylmethyl)amino)-N-methylnicotinamide] | 10 to 40
8 | CC(C)NC(=O)c1cnc(Nc2cc(N)nc(C(F)F)n2)cc1NC1CC1 [Compound 63, 6-((6-amino-2-(difluoromethyl)pyrimidin-4-yl)amino)-4-(cyclopropylamino)-N-isopropylnicotinamide] | < 10
9 | CCC(C)CNc1cc(Nc2cc(N)nc(C(F)F)n2)ncc1C(=O)NC (stereo not drawn) [Compound 65, 6-((6-amino-2-(difluoromethyl)pyrimidin-4-yl)amino)-N-methyl-4-((2-methylbutyl)amino)nicotinamide] | 10 to 40
10 | CNC(=O)c1cnc(Nc2cc(N)nc(C(F)F)n2)cc1NCCC(C)C [Compound 66, 6-((6-amino-2-(difluoromethyl)pyrimidin-4-yl)amino)-4-(isopentylamino)-N-methylnicotinamide] | 10 to 40
11 | Cn1cc(-c2cnc(Nc3cc(N)nc(C(F)F)n3)cc2OC(F)F)cn1 [Compound 69, N4-(4-(difluoromethoxy)-5-(1-methyl-1H-pyrazol-4-yl)pyridin-2-yl)-2-(difluoromethyl)pyrimidine-4,6-diamine] | 10 to 40
12 | COc1cc(Nc2cc(N)nc(C(F)F)n2)ncc1-c1cnn(C(F)F)c1 [Compound 70, 2-(difluoromethyl)-N4-(5-(1-(difluoromethyl)-1H-pyrazol-4-yl)-4-methoxypyridin-2-yl)pyrimidine-4,6-diamine] | < 10
13 | CCNC(=O)c1cnc(Nc2cc(N)nc(C(F)F)n2)cc1N[C@@H](C)CF [Compound 71, (S)-6-((6-amino-2-(difluoromethyl)pyrimidin-4-yl)amino)-N-ethyl-4-((1-fluoropropan-2-yl)amino)nicotinamide] | < 10
14 | CCNC(=O)c1cnc(Nc2cc(N)nc(C(F)F)n2)cc1N[C@H](C)CF [Compound 72, (R)-6-((6-amino-2-(difluoromethyl)pyrimidin-4-yl)amino)-N-ethyl-4-((1-fluoropropan-2-yl)amino)nicotinamide] | < 10
15 | CNC(=O)c1cnc(Nc2cc(N)nc(C(F)F)n2)cc1N[C@H](C)C(F)F [Compound 73, (R)-6-((6-amino-2-(difluoromethyl)pyrimidin-4-yl)amino)-4-((1,1-difluoropropan-2-yl)amino)-N-methylnicotinamide] | < 10
16 | CNC(=O)c1cnc(Nc2cc(N)nc(C(F)F)n2)cc1N[C@@H](C)C(F)F [Compound 74, (S)-6-((6-amino-2-(difluoromethyl)pyrimidin-4-yl)amino)-4-((1,1-difluoropropan-2-yl)amino)-N-methylnicotinamide] | < 10
17 | CNC(=O)c1cnc(Nc2cc(N)nc(C(F)F)n2)cc1NC(CF)CF [Compound 75, 6-((6-amino-2-(difluoromethyl)pyrimidin-4-yl)amino)-4-((1,3-difluoropropan-2-yl)amino)-N-methylnicotinamide] | < 10
18 | COc1cc(Nc2cc(N)nc(C(F)F)n2)ncc1-c1cnn(C2CNC2)c1 [Compound 76, N4-(5-(1-(azetidin-3-yl)-1H-pyrazol-4-yl)-4-methoxypyridin-2-yl)-2-(difluoromethyl)pyrimidine-4,6-diamine formate] | > 40
19 | COc1cc(Nc2cc(N)nc(C(F)F)n2)ncc1-c1cnn(C2COC2)c1 [Compound 78, 2-(difluoromethyl)-N4-(4-methoxy-5-(1-(oxetan-3-yl)-1H-pyrazol-4-yl)pyridin-2-yl)pyrimidine-4,6-diamine] | < 10
20 | Nc1cc(Nc2cc(NC3CC3)c(C(=O)NCC3CC3)cn2)nc(C(F)F)n1 [Compound 79, 6-((6-amino-2-(difluoromethyl)pyrimidin-4-yl)amino)-4-(cyclopropylamino)-N-(cyclopropylmethyl)nicotinamide] | 10 to 40
21 | CCOc1cc(Nc2cc(N)nc(C(F)F)n2)ncc1-c1cnn(CCN)c1 [Compound 81, N4-(5-(1-(2-aminoethyl)-1H-pyrazol-4-yl)-4-ethoxypyridin-2-yl)-2-(difluoromethyl)pyrimidine-4,6-diamine] | 10 to 40
22 | Cn1cc(-c2cnc(Nc3cc(N)nc(C(F)F)n3)cc2OCCCO)cn1 [Compound 83, 3-((2-((6-amino-2-(difluoromethyl)pyrimidin-4-yl)amino)-5-(1-methyl-1H-pyrazol-4-yl)pyridin-4-yl)oxy)propan-1-ol] | 10 to 40

Further lines, results first:

Row | IC50 [nM] | SMILES
23 | < 10 | CCNc1cc(Nc2cc(N)nc(C(F)F)n2)ncc1C(=O)NC1CC1 [Compound 39, 6-((6-amino-2-(difluoromethyl)pyrimidin-4-yl)amino)-N-cyclopropyl-4-(ethylamino)nicotinamide]
24 | 10 to 40 | CNC(=O)c1cnc(Nc2cc(N)nc(C(F)F)n2)cc1NC1COC1 [Compound 42, 6-((6-amino-2-(difluoromethyl)pyrimidin-4-yl)amino)-N-methyl-4-(oxetan-3-ylamino)nicotinamide]
25 | < 10 | CNC(=O)c1cnc(Nc2cc(N)nc(CF)n2)cc1N[C@H](C)C(F)F [Compound 47, (R)-6-((6-amino-2-(fluoromethyl)pyrimidin-4-yl)amino)-4-((1,1-difluoropropan-2-yl)amino)-N-methylnicotinamide]
26 | > 40 | COc1cc(Nc2cc(N)nc(CF)n2)ncc1-c1cnn(C2CNC2)c1 [Compound 50, N4-(5-(1-(azetidin-3-yl)-1H-pyrazol-4-yl)-4-methoxypyridin-2-yl)-2-(fluoromethyl)pyrimidine-4,6-diamine]
27 | < 10 | CC(C)Oc1cc(Nc2cc(N)nc([C@H](C)F)n2)ncc1-c1cnn(C)c1 [Compound 51, (S)-2-(1-fluoroethyl)-N4-(4-isopropoxy-5-(1-methyl-1H-pyrazol-4-yl)pyridin-2-yl)pyrimidine-4,6-diamine]
28 | < 10 | COc1cc(Nc2cc(N)nc(C(F)F)n2)ncc1-c1cnn(C(C)C)c1 [Compound 56]
29 | < 10 | Nc1cc(Nc2cc(NC3CC3)c(C(=O)NC3CC3)cn2)nc(C(F)F)n1 [Compound 57, 6-((6-amino-2-(difluoromethyl)pyrimidin-4-yl)amino)-N-cyclopropyl-4-(cyclopropylamino)nicotinamide]
30 | > 40 | Cc1noc(-c2cnc(Nc3cc(N)nc(C(F)F)n3)cc2NC(C)C)n1 [Compound 58, 2-(difluoromethyl)-N4-(4-(isopropylamino)-5-(3-methyl-1,2,4-oxadiazol-5-yl)pyridin-2-yl)pyrimidine-4,6-diamine]
31 | < 10 | CC(C)Nc1cc(Nc2cc(N)nc(C(F)F)n2)ncc1C(=O)NC1CC1 [Compound 60, 6-((6-amino-2-(difluoromethyl)pyrimidin-4-yl)amino)-N-cyclopropyl-4-(isopropylamino)nicotinamide trifluoroacetate]
32 | 10 to 40 | CCCNC(=O)c1cnc(Nc2cc(N)nc(C(F)F)n2)cc1NC1CC1 [Compound 62, 6-((6-amino-2-(difluoromethyl)pyrimidin-4-yl)amino)-4-(cyclopropylamino)-N-propylnicotinamide]
33 | 10 to 40 | CNC(=O)c1cnc(Nc2cc(N)nc(C(F)F)n2)cc1NC1CCOC1 (stereo not drawn) [Compound 64, 6-((6-amino-2-(difluoromethyl)pyrimidin-4-yl)amino)-N-methyl-4-((tetrahydrofuran-3-yl)amino)nicotinamide]
34 | < 10 | CCCNC(=O)c1cnc(Nc2cc(N)nc(C(F)F)n2)cc1NC(C)C [Compound 67, 6-((6-amino-2-(difluoromethyl)pyrimidin-4-yl)amino)-4-(isopropylamino)-N-propylnicotinamide]
35 | < 10 | Cn1cc(-c2cnc(Nc3cc(N)nc(C(F)F)n3)cc2OC2COC2)cn1 [Compound 77, 2-(difluoromethyl)-N4-(5-(1-methyl-1H-pyrazol-4-yl)-4-(oxetan-3-yloxy)pyridin-2-yl)pyrimidine-4,6-diamine]
36 | < 10 | CNC(=O)c1cnc(Nc2cc(N)nc(C(F)F)n2)cc1NCC(F)(F)F [Compound 82, 6-((6-amino-2-(difluoromethyl)pyrimidin-4-yl)amino)-N-methyl-4-((2,2,2-trifluoroethyl)amino)nicotinamide]
